Here are results for 18 compounds from ChEMBL document CHEMBL1201862, “PubChem BioAssay data set” (2004).

For test [1], the target named is Induced myeloid leukemia cell differentiation protein Mcl-1 (Homo sapiens, UniProt Q07820). In kind it is functional.
The target of test [2] is T1, Leucine aminopeptidase (Plasmodium falciparum 3D7, UniProt Q8IL11).
T1 sequence (Q8IL11 whole entry): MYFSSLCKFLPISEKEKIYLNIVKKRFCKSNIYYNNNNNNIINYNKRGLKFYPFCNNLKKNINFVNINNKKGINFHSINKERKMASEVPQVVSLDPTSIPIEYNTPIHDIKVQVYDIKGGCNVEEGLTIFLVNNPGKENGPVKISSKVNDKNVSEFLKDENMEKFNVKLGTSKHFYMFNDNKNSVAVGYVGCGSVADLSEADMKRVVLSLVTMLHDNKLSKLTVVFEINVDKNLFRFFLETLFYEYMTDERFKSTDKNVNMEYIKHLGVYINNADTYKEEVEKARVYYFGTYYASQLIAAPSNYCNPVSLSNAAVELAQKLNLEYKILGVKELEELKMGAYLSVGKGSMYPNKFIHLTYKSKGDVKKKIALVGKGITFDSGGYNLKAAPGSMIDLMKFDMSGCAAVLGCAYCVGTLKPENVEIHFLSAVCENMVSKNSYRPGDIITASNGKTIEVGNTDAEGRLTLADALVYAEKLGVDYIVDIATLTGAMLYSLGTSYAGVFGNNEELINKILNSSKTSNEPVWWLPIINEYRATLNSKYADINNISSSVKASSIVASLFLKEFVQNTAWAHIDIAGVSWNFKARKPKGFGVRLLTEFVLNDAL
Nature of the test: P. falciparum M17LAP inhibitors, primary screen, biochemical, fluorogenic H-Leu-NHMec substrate, 1536-well (AID 1619). In kind it is functional.

The target in test [3] is T2, Replicative DNA helicase DnaB (Mycobacterium tuberculosis, UniProt P9WMR3).
T2 sequence (P9WMR3 whole entry): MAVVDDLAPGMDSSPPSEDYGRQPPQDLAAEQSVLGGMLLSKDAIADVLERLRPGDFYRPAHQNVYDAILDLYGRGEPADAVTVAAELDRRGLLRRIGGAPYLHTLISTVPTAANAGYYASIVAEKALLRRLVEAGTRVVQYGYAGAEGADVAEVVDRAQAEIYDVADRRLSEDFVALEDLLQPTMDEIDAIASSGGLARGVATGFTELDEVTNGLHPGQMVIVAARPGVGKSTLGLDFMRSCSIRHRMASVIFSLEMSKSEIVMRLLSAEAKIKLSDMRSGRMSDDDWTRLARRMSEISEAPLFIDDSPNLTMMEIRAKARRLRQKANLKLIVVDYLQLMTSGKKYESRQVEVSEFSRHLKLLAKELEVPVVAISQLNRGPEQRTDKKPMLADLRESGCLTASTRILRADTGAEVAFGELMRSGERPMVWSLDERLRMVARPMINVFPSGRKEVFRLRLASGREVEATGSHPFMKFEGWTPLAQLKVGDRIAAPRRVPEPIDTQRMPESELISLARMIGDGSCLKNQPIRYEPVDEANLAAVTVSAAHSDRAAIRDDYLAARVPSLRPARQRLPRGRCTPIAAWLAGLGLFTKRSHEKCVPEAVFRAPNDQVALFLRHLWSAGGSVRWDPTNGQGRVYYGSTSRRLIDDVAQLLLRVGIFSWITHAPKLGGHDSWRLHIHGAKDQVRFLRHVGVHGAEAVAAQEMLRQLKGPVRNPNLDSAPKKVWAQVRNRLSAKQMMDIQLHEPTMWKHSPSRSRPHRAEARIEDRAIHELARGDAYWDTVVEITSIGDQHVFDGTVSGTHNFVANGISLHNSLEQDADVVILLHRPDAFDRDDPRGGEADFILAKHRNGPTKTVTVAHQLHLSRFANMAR
Nature of the test: DnaB intein splicing inhibitors, dose response, biochemical, cell-free fluorescence (AID 449749). In kind it is functional.

Test [4] has as its target T3, Protein RecA (Mycobacterium tuberculosis, UniProt P9WHJ3).
T3 sequence (P9WHJ3 whole entry): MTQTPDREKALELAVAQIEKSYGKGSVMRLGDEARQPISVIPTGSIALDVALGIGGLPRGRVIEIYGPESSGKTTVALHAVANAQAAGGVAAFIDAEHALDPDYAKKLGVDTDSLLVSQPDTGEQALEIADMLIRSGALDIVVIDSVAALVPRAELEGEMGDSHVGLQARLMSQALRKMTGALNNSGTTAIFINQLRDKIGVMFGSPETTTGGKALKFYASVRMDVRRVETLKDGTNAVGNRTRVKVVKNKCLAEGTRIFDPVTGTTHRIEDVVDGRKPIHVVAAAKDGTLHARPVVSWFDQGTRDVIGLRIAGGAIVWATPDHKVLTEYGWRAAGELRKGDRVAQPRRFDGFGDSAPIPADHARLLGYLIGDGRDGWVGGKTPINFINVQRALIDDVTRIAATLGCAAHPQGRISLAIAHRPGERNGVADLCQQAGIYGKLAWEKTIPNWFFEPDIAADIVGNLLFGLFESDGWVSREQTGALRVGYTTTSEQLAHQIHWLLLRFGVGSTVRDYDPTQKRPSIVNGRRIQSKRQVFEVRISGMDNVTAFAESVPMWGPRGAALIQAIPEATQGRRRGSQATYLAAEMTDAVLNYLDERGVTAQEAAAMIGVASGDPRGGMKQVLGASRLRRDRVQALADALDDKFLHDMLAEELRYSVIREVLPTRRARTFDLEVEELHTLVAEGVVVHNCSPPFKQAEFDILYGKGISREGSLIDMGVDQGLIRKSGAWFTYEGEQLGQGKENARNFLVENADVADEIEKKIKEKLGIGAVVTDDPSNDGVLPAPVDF
Nature of the test: Fluorescence Cell-Free Homogeneous Dose Retest to Identify Inhibitors of RecA-Intein Splicing Activity. [Related pubchem assays (depositor defined):AID2097, AID2223, AID489010, AID492950]. In kind it is functional.

Test [5] can be described thus: Luminescence Cell-Based Dose Confirmation HTS to Identify Activators of 5'UTR Stem-Loop Driven Alpha-Synuclein mRNA Translation in H4 Neuroglioblastoma Cells. [Related pubchem assays: 1829 (Project Summary), 1814 (Primary HTS)]. In kind it is functional.
A short description of test [6]: Luminescence Cell-Based Dose Response HTS to Identify Activators of Luciferase Translation or Activity in H4 […] Cells. [Related pubchem assays: 1829 (Project Summary), 1814 (Primary HTS)]. In kind it is functional.
Test [7] relates to H4. Nature of the test: Luminescence Cell-Based Dose Response HTS to Identify Activators of 5'UTR Stem-Loop Driven Prion Protein mRNA Translation in H4 Neuroglioblastoma Cells. [Related pubchem assays: 1829 (Project Summary), 1814 (Primary HTS)]. In kind it is functional. Particulars: Homo sapiens.
The target in test [8] is Prothrombin (Homo sapiens, UniProt P00734). Nature of the test: Thrombin 1536 HTS Dose Response Confirmation. [Related pubchem assays: 1046 (Thrombin 1536 HTS; hits were confirmed in this assay)]. In kind it is functional.
A short description of test [9]: cells. In kind it is functional, cell-based.
Test [10] addresses T4, Trace amine-associated receptor 1 (Homo sapiens, UniProt Q96RJ0).
T4 sequence (Q96RJ0 whole entry): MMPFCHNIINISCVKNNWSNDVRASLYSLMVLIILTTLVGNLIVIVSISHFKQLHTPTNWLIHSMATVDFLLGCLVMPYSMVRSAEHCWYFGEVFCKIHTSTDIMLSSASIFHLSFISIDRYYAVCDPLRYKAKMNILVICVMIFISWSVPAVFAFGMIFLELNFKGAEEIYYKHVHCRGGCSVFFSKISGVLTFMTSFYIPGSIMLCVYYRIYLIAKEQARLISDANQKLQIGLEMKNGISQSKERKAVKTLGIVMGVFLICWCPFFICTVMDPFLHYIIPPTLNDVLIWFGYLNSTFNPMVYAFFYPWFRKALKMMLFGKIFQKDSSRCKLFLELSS
Nature of the test: Fluorescence-based cell-based high throughput dose response assay to identify agonists of the human trace amine associated receptor 1 (TAAR1). In kind it is functional.

Test [11] has as its target T4, Trace amine-associated receptor 1. Nature of the test: Counterscreen for agonists of the human trace amine associated receptor 1 (hTAAR1): Fluorescence-based cell-based high throughput dose response assay to identify hTAAR1 agonist that also desensitize TAAR1 receptor response. In kind it is functional. (The purpose of a counterscreen is to sort out artefacts and off-target activity.)

A short description of test [12]: cells. In kind it is functional, cell-based. The source holds these as a separate data set.
The target in test [13] is Luciferin 4-monooxygenase (Photinus pyralis, UniProt P08659). Nature of the test: firefly luciferase enzyme inhibitors, dose response, biochemical, luminescence (AID 1891).
Test [14] in a line: Luminescence Cell-Based Dose Confirmation HTS to Identify Inhibitors of Platelet Dense Granule Release. [Related pubchem assays: 1663 (Primary HTS), 1678 (Summary of Project)]. In kind it is functional.
Test [15] is described as follows: P. falciparum Dd2 growth inhibitors, dose response, SYBR Green, cherry-picked samples (AID 1159567). In kind it is functional, cell-based.

In general, IC50 refers to the concentration that gives 50% inhibition. For orientation: AC50 means the concentration giving half of the maximal activity seen. The EC50 is the concentration giving half of the maximal effect.

Calls of active or inactive are those of the source.

Chain of Luciferin 4-monooxygenase (P08659 whole entry): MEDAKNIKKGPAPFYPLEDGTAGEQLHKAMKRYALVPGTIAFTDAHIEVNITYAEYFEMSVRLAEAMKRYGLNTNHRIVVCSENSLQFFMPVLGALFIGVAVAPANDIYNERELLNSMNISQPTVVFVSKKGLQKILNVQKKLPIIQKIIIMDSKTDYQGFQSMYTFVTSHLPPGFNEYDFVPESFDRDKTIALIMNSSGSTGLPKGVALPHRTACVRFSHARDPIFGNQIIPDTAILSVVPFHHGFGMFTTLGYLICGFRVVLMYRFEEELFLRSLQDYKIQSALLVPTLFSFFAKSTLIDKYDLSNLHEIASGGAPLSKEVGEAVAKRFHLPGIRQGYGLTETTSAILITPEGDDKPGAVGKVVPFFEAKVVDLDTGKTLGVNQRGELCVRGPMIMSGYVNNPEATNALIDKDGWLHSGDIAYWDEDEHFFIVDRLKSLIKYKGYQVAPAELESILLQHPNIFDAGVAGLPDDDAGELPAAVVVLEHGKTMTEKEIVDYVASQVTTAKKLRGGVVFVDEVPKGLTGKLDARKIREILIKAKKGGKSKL
Chain of Induced myeloid leukemia cell differentiation protein Mcl-1 (Q07820 whole entry): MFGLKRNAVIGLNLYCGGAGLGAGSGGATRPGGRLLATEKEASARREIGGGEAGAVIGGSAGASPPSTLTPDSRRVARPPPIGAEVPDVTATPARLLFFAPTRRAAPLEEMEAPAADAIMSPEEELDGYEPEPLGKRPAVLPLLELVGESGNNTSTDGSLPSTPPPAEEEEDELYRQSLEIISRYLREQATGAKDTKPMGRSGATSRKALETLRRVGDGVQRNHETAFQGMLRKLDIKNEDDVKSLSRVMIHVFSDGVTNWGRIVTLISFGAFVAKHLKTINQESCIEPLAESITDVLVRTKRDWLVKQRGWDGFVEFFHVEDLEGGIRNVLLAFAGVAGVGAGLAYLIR

Regarding `COc1ccc(CCNC(=O)COC(=O)Cc2cccc3ccccc23)cc1`, in [1], the IC50 is reported as 26.3 µM (not active).

Regarding `CCCCc1ccc(NC(=O)CSCc2cc(=O)[nH][nH]2)cc1`, the IC50 in test [2] was 12.4 µM (active). In test [3], the AC50 was 3.57 µM (active). Also, the 50% effective concentration (EC50) in test [4] was 1.82 µM (active).

`O=C(c1ccco1)n1nc(-c2ccccc2)nc1SCc1ccccc1`: the figures for the EC50 in [5], in [6] and in test [7] were > 120 µM (not active), 40.1 µM (active) and 19.6 µM (active), respectively. Further, in test [8], the half-maximal inhibitory concentration (IC50) is 0.695 µM (active).

`CCOc1ccccc1C(=O)Nc1nnc(SCC(=O)N2CCOCC2)s1`: the IC50 in [8] is > 50 µM (not active).

For the compound `CCN(CC)S(=O)(=O)N1CCC(C(=O)NCC2COc3ccccc3O2)CC1` (stereo not drawn), the IC50 in [2] is 11.3 µM (active).

Turning to `Cc1ccc(NC(=O)CSCc2nc(O)c3nnn(Cc4ccc(F)cc4)c3n2)c(C)c1`, the IC50 in test [2] was 2.06 µM (active).

`CCNC1=NN=C(c2cc(C)n(CCc3ccccc3)c2C)CS1`: the values for the IC50 in test [9] and in test [11] were > 29.9 µM (inactive) and 1.06 µM (active), respectively. Further, the values for the EC50 in test [10] and in test [12] were 0.373 µM (active) and > 29.9 µM (inactive), respectively.

On to `CC(C)(C)NC(=O)c1cc([N+](=O)[O-])ccc1N1CCCCC1`, for which the IC50 in test [8] is > 50 µM (not active).

Regarding `Clc1ccc(-c2nc3cc[nH]cc-3n2)cc1`, the EC50 in test [13] is 1 µM (active); in test [14], 10 µM (active); in test [10] it was > 29.9 µM (inactive); in test [12], > 29.9 µM (inactive). Further, the IC50 in [9] and in [11] was > 29.9 µM (inactive) each time.

`CCC(=O)NC(=S)Nc1cccc(NC(=O)c2ccccc2)c1`: the IC50 in [8] was > 50 µM (not active).

For the compound `COC(=O)[C@@]12C[C@@H](CC(=O)NCCc3ccccc3OC)C(=O)N(Cc3ccc4c(c3)OCO4)C1=CCC(C)(C)C2`, the IC50 was > 29.9 µM (inactive) in test [9] and 6.93 µM (active) in [11]. Besides, the figures for the concentration for a half-maximal effect (EC50) in [10] and in test [12] were 2.4 µM (active) and > 29.9 µM (inactive), respectively.

Take `O=C(N[C@H](C(=O)N1CCC[C@H]1C(=O)NCCc1ccccc1Cl)C1CCCCC1)c1ccccc1`: the IC50 is > 29.9 µM (inactive) in test [9] and 5.04 µM (active) in test [11]. Moreover, the EC50 in [10] was 5.2 µM (active); in test [12], > 29.9 µM (inactive).

Take `CCOC(=O)N[C@H](C(=O)N1CCC[C@H]1C(=O)NCCc1ccccc1Cl)C1CCCCC1`: the IC50 is > 29.9 µM (inactive) in test [9] and 2.33 µM (active) in test [11]. Moreover, the EC50 was 1.91 µM (active) in test [10] and > 29.9 µM (inactive) in test [12].

`Oc1nncc(N/N=C/c2ccccc2)c1Cl`: the results for the IC50 in test [9] and in [11] were > 29.9 µM (inactive) and 0.981 µM (active), respectively. The values for the EC50 in test [10] and in [12] were 0.29 µM (active) and > 29.9 µM (inactive), respectively.

With `CCS(=O)(=O)N1CC(=O)N2[C@H](CO)[C@@H](c3ccc(-c4ccccc4F)cc3)[C@@H]2C1`, the AC50 in [15] was 13.6 µM (active).

For `COc1ccc(CN2C[C@@H](C)[C@@H](OC)CN(C)C(=O)c3cc(NC(=O)c4nc5ccccc5s4)ccc3OC[C@H]2C)cc1`, in test [15], the AC50 is 6.65 µM (active).

On to `COc1ccc2c3c([nH]c2c1)[C@H](CO)N(Cc1ccccc1)CC31CCN(CC2CC2)CC1`, for which the AC50 in test [15] was 2.62 µM (active).

On to `CC1=C(C)C(=O)C(CCCCC#CCCCC#CCO)=C(C)C1=O` [DOCEBENONE], for which, in test [2], the IC50 is 53.4 µM (active).
